Assay results published in ChEMBL document CHEMBL5385881, “Design, synthesis, and discovery of Eudistomin Y derivatives as lysosome-targeted antiproliferation agents” (Eur J Med Chem, 2023).

How the values were obtained:
Format in all cases: functional, cell-based
MDA-MB-231 = assay: Cytotoxicity against human MDA-MB-231 cells assessed as cell inhibition measured after 72 hrs by MTT assay; settings: MDA-MB-231, 72 h
HepG2 = assay: Cytotoxicity against human HepG2 cells assessed as cell inhibition measured after 72 hrs by MTT assay; settings: HepG2, 72 h
SGC-7901 = assay: Cytotoxicity against human SGC-7901 cells assessed as cell inhibition measured after 72 hrs by MTT assay; settings: SGC-7901, 72 h
LS180 = assay: Cytotoxicity against human LS180 cells assessed as cell inhibition measured after 72 hrs by MTT assay; settings: LS180, 72 h
A549 = assay: Cytotoxicity against human A549 cells assessed as cell inhibition measured after 72 hrs by MTT assay; settings: A549, 72 h

Row | Compound | IC50 (MDA-MB-231) | IC50 (HepG2) | IC50 (SGC-7901) | IC50 (LS180) | IC50 (A549)
1 | O=C(c1ccc(OCc2ccccc2)cc1)c1nccc2c1[nH]c1ccccc12 | 11.2 µM | 203 µM | 55.1 µM | 20.7 µM | 15.6 µM
2 | O=c1[nH]cc(F)c(=O)[nH]1 [FLUOROURACIL] | 67.5 µM | – | 13.1 µM | 3.4 µM | 1.3 µM
3 | O=C(c1ccccc1)c1nccc2c3ccccc3n(Cc3ccc([N+](=O)[O-])cc3)c12 | 31.4 µM | 18.7 µM | 7.1 µM | 4.4 µM | 10.2 µM
4 | O=C(c1ccccc1)c1nccc2c1[nH]c1ccccc12 | 66.1 µM | 244 µM | 345 µM | 258 µM | 74.3 µM
5 | Cc1cccc(Cn2c3ccccc3c3ccnc(C(=O)c4ccccc4)c32)c1 | 56.5 µM | 31.8 µM | 25.4 µM | 19 µM | 33.6 µM
